One block for each substance: values may come before it.
What was measured:
Assay in all cases: Histone peptide microarray
Type in all cases: binding, human
AIRE (PP) = system: AIRE (PP)
Method in brief: (§1)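 Binding of recombinant GST-fused PHD readers (0.5 μM) is detected on an array of 293 histone peptides, modified singly or in combination. An optimized array protocol is followed, and each intensity is the average of quadruplicate measurements with standard deviation.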

BAZ2B = system: BAZ2B
Method in brief: as §1

BPTF (PB) = system: BPTF (PB)
Method in brief: as §1

CHD4 (PPCC) = system: CHD4 (PPCC)
Method in brief: as §1

CHD5 (PCC) = system: CHD5 (PCC)
Method in brief: as §1

CHD5 (PPCC) = system: CHD5 (PPCC)
Method in brief: as §1

DIDO1 = system: DIDO1
Method in brief: as §1

DPF2 (PPC2W2) = system: DPF2 (PPC2W2)
Method in brief: as §1

ING1 = system: ING1
Method in brief: as §1

ING2 = system: ING2
Method in brief: as §1

ING3 = system: ING3
Method in brief: as §1

ING4 = system: ING4
Method in brief: as §1

ING5 = system: ING5
Method in brief: as §1

KDM4C (TTP) = system: KDM4C (TTP)
Method in brief: as §1

KDM5A (1) = system: KDM5A (1)
Method in brief: as §1

KDM5A (3) = system: KDM5A (3)
Method in brief: as §1

KDM5B (1) = system: KDM5B (1)
Method in brief: as §1

KDM5B (3) = system: KDM5B (3)
Method in brief: as §1

KDM7A = system: KDM7A
Method in brief: as §1

MLL5 = system: MLL5
Method in brief: as §1

MORC3 (CW) = system: MORC3 (CW)
Method in brief: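 GST-tagged PHD finger readers were expressed, purified and applied at 0.5 μM to a microarray of 293 synthetic histone peptides carrying single or combinatorial PTMs, using an optimized protocol. Binding signals are averages with standard deviation from 4 replicates.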

PHF13 = system: PHF13
Method in brief: as §1

PHF21A = system: PHF21A
Method in brief: as §1

PHF23 = system: PHF23
Method in brief: as §1

PHF2 = system: PHF2
Method in brief: as §1

PHF8 = system: PHF8
Method in brief: as §1

PHRF1 (RP) = system: PHRF1 (RP)
Method in brief: as §1

RAG2 = system: RAG2
Method in brief: as §1

SP140L = system: SP140L
Method in brief: as §1

TAF3 = system: TAF3
Method in brief: as §1

TRIM66 (PB) = system: TRIM66 (PB)
Method in brief: as §1

Array Heatmap value (peptide array binding signal) (AIRE (PP); AIRE (PP), GST-tagged, arrays performed twice, n of 4): 0.4876 | Array Heatmap value (peptide array binding signal) (BAZ2B; BAZ2B, GST-tagged, arrays performed twice, n of 4): 0.5259 | Array Heatmap value (peptide array binding signal) (BPTF (PB); BPTF (PB), GST-tagged, arrays performed twice, n of 4): 0.4073 | Array Heatmap value (peptide array binding signal) (CHD4 (PPCC); CHD4 (PPCC), GST-tagged, arrays performed twice, n of 4): 0.6658 | Array Heatmap value (peptide array binding signal) (CHD5 (PCC); CHD5 (PCC), GST-tagged, arrays performed twice, n of 4): 0.7976 | Array Heatmap value (peptide array binding signal) (CHD5 (PPCC); CHD5 (PPCC), GST-tagged, arrays performed twice, n of 4): 0.6481 | Array Heatmap value (peptide array binding signal) (DIDO1; DIDO1, GST-tagged, arrays performed twice, n of 4): 0.7863 | Array Heatmap value (peptide array binding signal) (DPF2 (PPC2W2); DPF2 (PPC2W2), GST-tagged, arrays performed twice, n of 4): 0.7315 | Array Heatmap value (peptide array binding signal) (ING1; ING1, GST-tagged, arrays performed twice, n of 4): 0.6166 | Array Heatmap value (peptide array binding signal) (ING2; ING2, GST-tagged, arrays performed twice, n of 4): 0.6115 | Array Heatmap value (peptide array binding signal) (ING3; ING3, GST-tagged, arrays performed twice, n of 4): 0.5693 | Array Heatmap value (peptide array binding signal) (ING4; ING4, GST-tagged, arrays performed twice, n of 4): 0.5367 | Array Heatmap value (peptide array binding signal) (ING5; ING5, GST-tagged, arrays performed twice, n of 4): 0.4264 | Array Heatmap value (peptide array binding signal) (KDM4C (TTP); KDM4C (TTP), GST-tagged, arrays performed twice, n of 4): 0.563 | Array Heatmap value (peptide array binding signal) (KDM5A (1); KDM5A (1), GST-tagged, arrays performed twice, n of 4): 0.5328 | Array Heatmap value (peptide array binding signal) (KDM5A (3); KDM5A (3), GST-tagged, arrays performed twice, n of 4): 0.4992 | Array Heatmap value (peptide array binding signal) (KDM5B (1); KDM5B (1), GST-tagged, arrays performed twice, n of 4): 0.6378 | Array Heatmap value (peptide array binding signal) (KDM5B (3); KDM5B (3), GST-tagged, arrays performed twice, n of 4): 0.4993 | Array Heatmap value (peptide array binding signal) (KDM7A; KDM7A, GST-tagged, arrays performed twice, n of 4): 0.3952 | Array Heatmap value (peptide array binding signal) (MLL5; MLL5, GST-tagged, arrays performed twice, n of 4): 0.5607 | Array Heatmap value (peptide array binding signal) (MORC3 (CW); MORC3 (CW), GST-tagged, arrays performed twice, n of 4): 0.3781 | Array Heatmap value (peptide array binding signal) (PHF13; PHF13, GST-tagged, arrays performed twice, n of 4): 0.7054 | Array Heatmap value (peptide array binding signal) (PHF21A; PHF21A, GST-tagged, arrays performed twice, n of 4): 0.4938 | Array Heatmap value (peptide array binding signal) (PHF23; PHF23, GST-tagged, arrays performed twice, n of 4): 0.5743 | Array Heatmap value (peptide array binding signal) (PHF2; PHF2, GST-tagged, arrays performed twice, n of 4): 0.6568 | Array Heatmap value (peptide array binding signal) (PHF8; PHF8, GST-tagged, arrays performed twice, n of 4): 0.402 | Array Heatmap value (peptide array binding signal) (PHRF1 (RP); PHRF1 (RP), GST-tagged, arrays performed twice, n of 4): 0.5374 | Array Heatmap value (peptide array binding signal) (RAG2; RAG2, GST-tagged, arrays performed twice, n of 4): 0.2847 | Array Heatmap value (peptide array binding signal) (SP140L; SP140L, GST-tagged, arrays performed twice, n of 4): 0.3948 | Array Heatmap value (peptide array binding signal) (TAF3; TAF3, GST-tagged, arrays performed twice, n of 4): 0.3163 | Array Heatmap value (peptide array binding signal) (TRIM66 (PB); TRIM66 (PB), GST-tagged, arrays performed twice, n of 4): 0.6377
Substance: H2A.Z (1-19): H2AZ 1-19 (AGGKAGKDSGKAKTKAVSR; UniProt P0C0S5 2-20, looked up, fragment)

Substance: H3R2me2a + T3p + K4me3 + K9ac + K14ac + K18ac: H3 1-20
Array Heatmap signal (histone peptide microarray) (AIRE (PP); GST-tagged AIRE (PP), sheet Array Heatmap, each array performed twice, total n = 4): 0.414 | Array Heatmap signal (histone peptide microarray) (BAZ2B; GST-tagged BAZ2B, sheet Array Heatmap, each array performed twice, total n = 4): 0.4718 | Array Heatmap signal (histone peptide microarray) (BPTF (PB); GST-tagged BPTF (PB = PHD + Bromodomain), sheet Array Heatmap, each array performed twice, total n = 4): 0.3469 | Array Heatmap signal (histone peptide microarray) (CHD4 (PPCC); GST-tagged CHD4 (PPCC = Dual PHD + Dual Chromodomain), sheet Array Heatmap, each array performed twice, total n = 4): 0.601 | Array Heatmap signal (histone peptide microarray) (CHD5 (PCC); GST-tagged CHD5 (PCC = PHD + Dual Chromodomain), sheet Array Heatmap, each array performed twice, total n = 4): 0.7369 | Array Heatmap signal (histone peptide microarray) (CHD5 (PPCC); GST-tagged CHD5 (PPCC = Dual PHD + Dual Chromodomain), sheet Array Heatmap, each array performed twice, total n = 4): 0.5374 | Array Heatmap signal (histone peptide microarray) (DIDO1; GST-tagged DIDO1, sheet Array Heatmap, each array performed twice, total n = 4): 0.7634 | Array Heatmap signal (histone peptide microarray) (DPF2 (PPC2W2); GST-tagged DPF2 (PPC2W2 = Dual PHD + C2W2-type Zn-finger), sheet Array Heatmap, each array performed twice, total n = 4): 0.7018 | Array Heatmap signal (histone peptide microarray) (ING1; GST-tagged ING1, sheet Array Heatmap, each array performed twice, total n = 4): 0.5919 | Array Heatmap signal (histone peptide microarray) (ING2; GST-tagged ING2, sheet Array Heatmap, each array performed twice, total n = 4): 0.6041 | Array Heatmap signal (histone peptide microarray) (ING3; GST-tagged ING3, sheet Array Heatmap, each array performed twice, total n = 4): 0.4704 | Array Heatmap signal (histone peptide microarray) (ING4; GST-tagged ING4, sheet Array Heatmap, each array performed twice, total n = 4): 0.4544 | Array Heatmap signal (histone peptide microarray) (ING5; GST-tagged ING5, sheet Array Heatmap, each array performed twice, total n = 4): 0.3446 | Array Heatmap signal (histone peptide microarray) (KDM4C (TTP); GST-tagged KDM4C (TTP = Tandem Tudor domain + PHD), sheet Array Heatmap, each array performed twice, total n = 4): 0.4624 | Array Heatmap signal (histone peptide microarray) (KDM5A (1); GST-tagged KDM5A (1), sheet Array Heatmap, each array performed twice, total n = 4): 0.4561 | Array Heatmap signal (histone peptide microarray) (KDM5A (3); GST-tagged KDM5A (3), sheet Array Heatmap, each array performed twice, total n = 4): 0.4737 | Array Heatmap signal (histone peptide microarray) (KDM5B (1); GST-tagged KDM5B (1), sheet Array Heatmap, each array performed twice, total n = 4): 0.6524 | Array Heatmap signal (histone peptide microarray) (KDM5B (3); GST-tagged KDM5B (3), sheet Array Heatmap, each array performed twice, total n = 4): 0.4463 | Array Heatmap signal (histone peptide microarray) (KDM7A; GST-tagged KDM7A, sheet Array Heatmap, each array performed twice, total n = 4): 0.3252 | Array Heatmap signal (histone peptide microarray) (MLL5; GST-tagged MLL5, sheet Array Heatmap, each array performed twice, total n = 4): 0.5392 | Array Heatmap signal (histone peptide microarray) (MORC3 (CW); GST-tagged MORC3 (CW = CW-type Zn-finger), sheet Array Heatmap, each array performed twice, total n = 4): 0.4346 | Array Heatmap signal (histone peptide microarray) (PHF13; GST-tagged PHF13, sheet Array Heatmap, each array performed twice, total n = 4): 0.5933 | Array Heatmap signal (histone peptide microarray) (PHF21A; GST-tagged PHF21A, sheet Array Heatmap, each array performed twice, total n = 4): 0.4332 | Array Heatmap signal (histone peptide microarray) (PHF23; GST-tagged PHF23, sheet Array Heatmap, each array performed twice, total n = 4): 0.5518 | Array Heatmap signal (histone peptide microarray) (PHF2; GST-tagged PHF2, sheet Array Heatmap, each array performed twice, total n = 4): 0.6236 | Array Heatmap signal (histone peptide microarray) (PHF8; GST-tagged PHF8, sheet Array Heatmap, each array performed twice, total n = 4): 0.377 | Array Heatmap signal (histone peptide microarray) (PHRF1 (RP); GST-tagged PHRF1 (RP), sheet Array Heatmap, each array performed twice, total n = 4): 0.4697 | Array Heatmap signal (histone peptide microarray) (RAG2; GST-tagged RAG2, sheet Array Heatmap, each array performed twice, total n = 4): 0.2569 | Array Heatmap signal (histone peptide microarray) (SP140L; GST-tagged SP140L, sheet Array Heatmap, each array performed twice, total n = 4): 0.3444 | Array Heatmap signal (histone peptide microarray) (TAF3; GST-tagged TAF3, sheet Array Heatmap, each array performed twice, total n = 4): 0.2554 | Array Heatmap signal (histone peptide microarray) (TRIM66 (PB); GST-tagged TRIM66 (PB = PHD + Bromodomain), sheet Array Heatmap, each array performed twice, total n = 4): 0.5775
